Data from US12522594B2, “2-heteroaryl-3-oxo-2,3-dihydropyridazine-4-carboxamides for the treatment of cancer” (Deutsches Krebsforschungszentrum, priority 2017, dated 2026).
“And” between values parts separate entries of the source, which are not always exact repeats. Equal values may be shown once.

Tests used:
Format in all cases: cell-based
[1] = tested on: human monocytes; test: In vitro assay 4: rescue of TNFα production from human primary monocytes (LPS + KA); conditions: one value per donor; for Individual Donors Conc of highest rescue: concentration (of 1, 0.3, 0.1 uM tested) at which highest TNFα rescue was observed; for Individual Donors % rescue TNFα normalised to ref cmpd: human monocytes, 10 ng/mL LPS + 200 uM KA, 18 hours, highest percent rescue relative to highest rescue with GNF-351
Experimental: In Vitro Assay 4: Rescue of TNFα Production from Human Primary Monocytes
The ability of the substances to enhance immune cell activity was determined. The substances were tested for their capacity to reverse KA-induced inhibition of TNFα production by LPS-stimulated human monocytes. Human monocytes were purified by negative selection from donor PBMCs using Miltenyi beads and seeded at 2×10^5 cells/well in complete growth medium (RPMI 1640, 10% FCS). Monocytes were incubated with 10 ng/mL LPS (O127:B8, #L4516, Sigma) and 200 uM KA (#3375, Sigma) and substances were added at concentrations of 1 uM, 0.3 uM and 0.1 uM and cultured for 18 hours. LPS alone served as the positive control. TNFα production in the supernatant was measured by Meso Scale Discovery immunoassay and the ability of the substances to rescue TNFα production was calculated as a percentage of LPS stimulation and KA-induced inhibition and normalized to the donor-specific response with the reference AHR antagonist compound GNF-351 (Smith et al., J Pharmacol Exp Ther, 2011, 338(1):318-27).

[2] = target: T1, AHR (Homo sapiens, UniProt P35869); test: In vitro assay 2: agonism in human cell line (transactivation assay, U87 cells, DRE firefly luciferase reporter); set-up: host or cells: U87 glioblastoma cells, stably transfected with DRE firefly luciferase and renilla reporter constructs; conditions: no kynurenic acid, 20 hours, read-out: Assay 2: AHR-luc Hum Agonism IC50
T1 sequence (P35869 11-848): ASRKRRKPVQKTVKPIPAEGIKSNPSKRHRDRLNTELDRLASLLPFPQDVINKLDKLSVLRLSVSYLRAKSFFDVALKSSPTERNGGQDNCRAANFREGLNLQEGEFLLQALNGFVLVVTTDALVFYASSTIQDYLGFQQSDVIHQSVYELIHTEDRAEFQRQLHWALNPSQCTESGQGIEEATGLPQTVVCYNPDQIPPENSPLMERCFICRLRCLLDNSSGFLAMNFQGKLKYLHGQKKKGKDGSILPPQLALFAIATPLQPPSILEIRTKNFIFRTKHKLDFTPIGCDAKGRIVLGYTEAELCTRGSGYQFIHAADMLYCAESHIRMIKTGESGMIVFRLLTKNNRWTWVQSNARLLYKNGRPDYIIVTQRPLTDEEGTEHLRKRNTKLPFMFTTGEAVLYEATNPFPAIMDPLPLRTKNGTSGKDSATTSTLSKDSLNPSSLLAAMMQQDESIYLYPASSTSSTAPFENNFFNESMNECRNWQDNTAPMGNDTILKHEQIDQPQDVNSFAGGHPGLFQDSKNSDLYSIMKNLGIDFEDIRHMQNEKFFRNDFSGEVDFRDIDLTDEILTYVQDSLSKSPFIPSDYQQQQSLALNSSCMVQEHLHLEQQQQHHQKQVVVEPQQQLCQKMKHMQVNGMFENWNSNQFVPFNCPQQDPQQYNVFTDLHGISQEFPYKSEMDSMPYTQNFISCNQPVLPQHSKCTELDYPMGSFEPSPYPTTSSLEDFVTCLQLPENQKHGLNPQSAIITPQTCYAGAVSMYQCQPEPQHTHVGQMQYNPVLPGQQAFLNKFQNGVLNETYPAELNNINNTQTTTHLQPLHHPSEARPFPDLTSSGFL
In short: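 U87 glioblastoma cells with endogenous AHR, stably carrying DRE-driven firefly luciferase and constitutive renilla reporters. 300 uM kynurenic acid served as positive activation control; data normalized to positive and negative controls.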

[3] = target: T1, AHR; test: In vitro assay 1: antagonism in human cell line (transactivation assay, U87 cells prestimulated with kynurenic acid, DRE firefly luciferase reporter); set-up: host or cells: U87 glioblastoma cells, stably transfected with DRE firefly luciferase and renilla reporter constructs; conditions: 150 uM kynurenic acid, 20 hours, read-out: Assay 1: AHR-luc Hum Antagonism IC50
In short: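 U87 glioblastoma cells with endogenous AHR, stably carrying a DRE-driven firefly luciferase reporter and a constitutive renilla reporter. Cells prestimulated with the AHR agonist kynurenic acid before compound addition; data normalized to positive and negative controls.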

[4] = target: T1, AHR; test: In vitro assay 3: AHR-regulated CYP1A1 expression in human cell line (U937, qPCR, KA stimulation); conditions: U937 cells, 200 uM KA, 6 hours, CYP1A1 expression by qPCR; read-out: Assay 3: Hum CYP1A1 Antagonism IC50
In short: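 U937 human monocytic cells were stimulated with 200 uM KA for 6 h, with or without compound at eight concentrations from 1 nM to 3 uM, in duplicate. CYP1A1 mRNA was quantified by Taqman qPCR as fold expression normalised to HPRT. Unstimulated cells served as negative control.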

Compound	Individual Donors Conc of highest rescue [1]	Individual Donors % rescue TNFα normalised to ref cmpd [1]	IC50 [2] [nM]	IC50 [3] [nM]	IC50 [4] [nM]
O=C(NC(CO)C(F)(F)F)c1cc(-c2ccc(C(F)(F)F)cc2)nn(-c2cccnc2)c1=O (racemic) [Example 110, 3-Oxo-2-(pyridin-3-yl)-N-[(2RS)-1,1,1-trifluoro-3-hydroxypropan-2-yl]-6-[4-(trifluoromethyl)phenyl]-2,3-dihydropyridazine-4-carboxamide]	0.1 µM and 0.3 µM	85% and 42%	> 20000	3.31	
O=C(N[C@H]1COC[C@H]1O)c1cc(-c2ccc(C(F)F)nc2)nn(-c2cccnc2)c1=O (single isomer, unassigned) [Example 184, 6-[6-(Difluoromethyl)pyridin-3-yl]-N-[(cis)-4-hydroxytetrahydrofuran-3-yl]-3-oxo-2-(pyridin-3-yl)-2,3-dihydropyridazine-4-carboxamide]	0.1 µM and 1 µM	63% and 62%	> 20000	3810	
CC(C)(O)C(NC(=O)c1cc(-c2ccc(Cl)cc2)nn(-c2cncnc2)c1=O)C(F)(F)F (single isomer, unassigned) [Example 186, 6-(4-Chlorophenyl)-3-oxo-2-(pyrimidin-5-yl)-N-(1,1,1-trifluoro-3-hydroxy-3-methylbutan-2-yl)-2,3-dihydropyridazine-4-carboxamide]	0.1 µM and 0.3 µM	65% and 108%	> 20000	131	
Cn1cc(-n2nc(-c3ccc(Cl)cc3)cc(C(=O)NCC(O)C(F)F)c2=O)cn1 (single isomer, unassigned; (+)) [Example 23, (+)-6-(4-Chlorophenyl)-N-(3,3-difluoro-2-hydroxypropyl)-2-(1-methyl-1H-pyrazol-4-yl)-3-oxo-2,3-dihydropyridazine-4-carboxamide]	1 µM	274% and 81%	> 20000	45.7	
O=C(NCC(O)C(F)F)c1cc(-c2ccc(Cl)cc2)nn(-c2cccnc2)c1=O (single isomer, unassigned; (+)) [Example 88, (+)-6-(4-Chlorophenyl)-N-(3,3-difluoro-2-hydroxypropyl)-3-oxo-2-(pyridin-3-yl)-2,3-dihydropyridazine-4-carboxamide]	1 µM	69% and 35%	> 20000	78	
Cc1ccc(-c2cc(C(=O)NC(C)CO)c(=O)n(-c3cnn(C)c3)n2)cc1 (stereo not drawn) [Example 7, N-(1-Hydroxypropan-2-yl)-6-(4-methylphenyl)-2-(1-methyl-1H-pyrazol-4-yl)-3-oxo-2,3-dihydropyridazine-4-carboxamide]	0.1 μM and 1 μM (2×)	126% and 63% and 49%	> 20000	20.5	
Cn1cc(-n2nc(-c3ccc(C(F)(F)F)cc3)cc(C(=O)N[C@H](CO)C(F)(F)F)c2=O)cn1 [Example 36, 2-(1-Methyl-1H-pyrazol-4-yl)-3-oxo-N-[(2R)-1,1,1-trifluoro-3-hydroxypropan-2-yl]-6-[4-(trifluoromethyl)phenyl]-2,3-dihydropyridazine-4-carboxamide]	1 µM	74% and 65%	> 20000		
C[C@H](NC(=O)c1cc(-c2ccc(C(F)F)cc2)nn(-c2cccnc2)c1=O)C(C)(C)O [Example 319, 6-[4-(Difluoromethyl)phenyl]-N-[(2S)-3-hydroxy-3-methylbutan-2-yl]-3-oxo-2-(pyridin-3-yl)-2,3-dihydropyridazine-4-carboxamide]			> 20000	35.5	22.3
CC(C)(O)CNC(=O)c1cc(-c2ccc(C(F)F)cc2)nn(-c2cccnc2)c1=O [Example 322, 6-[4-(Difluoromethyl)phenyl]-N-(2-hydroxy-2-methylpropyl)-3-oxo-2-(pyridin-3-yl)-2,3-dihydropyridazine-4-carboxamide]			> 20000	56.7	31.1
